The numbers were not newly measured in patent US10912302B2, “Glyphosate salt herbicidal composition” (Monsanto Technology LLC, priority 2004, dated 2021), which cites them from elsewhere.

The conditions of this data set: 25° C.

SMILES strings stand for the structures.

Turning to `O=C(O)CNCP(=O)(O)O` [Glyphosate, glyphosate], the solubility in water is 1.16 % by weight.
